From BindingDB's records for doi:10.1002/cbic.201402321 (The University of Texas At Austin, 2014)

biological target: T1, Eukaryotic elongation factor 2 kinase (Homo sapiens, UniProt O00418); test: Kinase assay
T1 sequence (O00418 whole entry): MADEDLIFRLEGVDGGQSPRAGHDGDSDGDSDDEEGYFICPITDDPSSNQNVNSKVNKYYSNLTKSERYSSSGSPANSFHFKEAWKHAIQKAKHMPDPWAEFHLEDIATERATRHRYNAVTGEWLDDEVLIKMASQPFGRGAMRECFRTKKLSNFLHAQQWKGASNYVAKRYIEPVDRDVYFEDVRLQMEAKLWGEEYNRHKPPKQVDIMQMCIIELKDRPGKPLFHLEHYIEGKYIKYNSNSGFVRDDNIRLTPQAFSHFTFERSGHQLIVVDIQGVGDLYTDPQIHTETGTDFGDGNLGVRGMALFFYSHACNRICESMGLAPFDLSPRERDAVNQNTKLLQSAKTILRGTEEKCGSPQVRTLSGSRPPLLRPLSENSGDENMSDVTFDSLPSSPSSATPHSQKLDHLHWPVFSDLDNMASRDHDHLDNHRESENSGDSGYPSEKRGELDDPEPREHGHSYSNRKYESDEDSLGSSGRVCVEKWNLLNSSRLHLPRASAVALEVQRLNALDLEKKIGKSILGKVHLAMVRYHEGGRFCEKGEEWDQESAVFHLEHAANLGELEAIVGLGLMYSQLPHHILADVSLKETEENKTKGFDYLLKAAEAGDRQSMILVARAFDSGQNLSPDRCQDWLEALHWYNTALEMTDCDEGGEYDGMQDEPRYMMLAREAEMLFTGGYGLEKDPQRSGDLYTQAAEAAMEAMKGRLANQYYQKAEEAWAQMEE
Method: WT eEF-2K (2 nM) was preincubated with various concentrations of inhibitors (0-1000 uM) in assay buffer containing CaCl2 (150 uM), calmodulin (1 uM), triton X-100 (0.01%), and peptide substrate (50 uM) for 60 min. The reactions were started by addition of [gamma-P32]-ATP (100 uM, specific activity = 1000 cpm/pmol).

Row | IC50 [µM] | SMILES
1 | 66 | N#CC1C(=O)NC(=O)C(C#N)C1c1cccc(O)c1 (stereo unspecified) [4‐(3‐hydroxyphenyl)‐2,6‐dioxopiperidine‐3,5‐ dicarbonitrile (4)]
2 | 30 | N#CC1C(=O)NC(=O)C(C#N)C1c1ccc(Cl)c(Cl)c1 (stereo unspecified) [4-(3,4-dichlorophenyl)-2,6-dioxopiperidine-3,5-dicarbonitrile (2)]
3 | 25 | COc1cccc(C2C(C#N)C(=O)NC(=O)C2C#N)c1 (stereo unspecified) [4-(3-methoxyphenyl)-2,6-dioxo-3,5-piperidinedicarbonitrile (MDP)]
4 | 46 | Cc1ccc(C2C(C#N)C(=O)NC(=O)C2C#N)cc1 (stereo unspecified) [4‐(4‐methylphenyl)‐2,6‐dioxopiperidine‐3,5‐ dicarbonitrile (3)]
5 | 33 | Cc1ccccc1C1C(C#N)C(=O)NC(=O)C1C#N (stereo unspecified) [4‐(2‐methylphenyl)‐2,6‐dioxopiperidine‐3,5‐ dicarbonitrile (1)]
6 | 57 | N#CC1C(=O)NC(=O)C(C#N)C1c1c(Cl)cccc1Cl (stereo unspecified) [4‐(2,6‐dichlorophenyl)‐2,6‐dioxopiperidine‐3,5‐ dicarbonitrile (5)]
